This note sets out measurements from patent US10117821B2, “Topical lightening composition and methods of use thereof” (Avon Products, Inc., priority 2013, dated 2018).

One assay deals with B16 mouse melanoma cells. Nature of the assay: Melanin synthesis in B16 melanoma cell assay, normalized to MTT cell viability. Conditions: 7 days, vs water vehicle control, 6 replicates. It is filed as cell-based. The procedure:
The effects of 3,3′-thiodipropanoic acid and Kojic acid on melanin levels were determined by performing assays using B16 melanoma cells. These cells are known to constitutively produce melanin and are a commonly utilized and accepted model system for monitoring the inhibition of melanin synthesis.
The B16 mouse melanoma cells were seeded (ATCC, cat. #: CRL-6475) into 96-well tissue culture-treated plates (BD Falcon) and treated with test actives or controls in DMEM without phenol red (Mediatech; cat. #: 17-205-CV). The cells were examined for their ability to modulate pigment formation. […] Tests were performed in 6 replicates each. Following the treatment period, the level of pigment produced or melanin synthesized was quantified by reading the absorbance at 540 nm using a standard microplate reader (Tecan Group Ltd.).
After quantifying the amount of melanin, cell viability was determined using the MTT conversion method. […] After quantifying the amount of melanin pigment produced, the cells were exposed to MTT dye solution (1 mg/ml) for two to three hours. […] MTT dye uptake and conversion by viable cells were determined by measuring the extracted formazan at 570 nm using a microplate reader. Total pigmentation was calculated, normalized to cell viability values and expressed as the average percent change in melanin level relative to control of sextuplicates performed.

In assay [1] the test system is MELANODERM™ (MEL-300-B) human skin model. Kind of assay: Melanin levels in MELANODERM 3D human skin model. The format is cell-based. Conditions: vs water vehicle control. The procedure: The effect of 3,3′-thiodipropanoic acid or Thiodipropionic acid (TDPA) and Nicotinamide on melanin levels was investigated using a MELANODERM™ (MEL-300-B, MatTek Corp., Ashland, Mass.) human skin model. MELANODERM™ is a viable reconstituted three-dimensional human skin equivalent containing melanocytes derived from African-American donors. Tissues were maintained in culture medium EPI-100-NMM-113 at 37° C. as recommended by the manufacturer.
TDPA was dissolved in water to a final concentration of 1.0% (w/v). Nicotinamide was dissolved in the culture media to a final concentration of 0.1% (w/v). 25 μl of the TDPA solution was applied topically to the MELANODERM™ tissue while 0.1% Nicotinamide containing culture medium was added on days 1, 2, 4, 7, 9, and 11. Control tissues were treated with water vehicle only. The tissue was treated with both active lightening agents at “saturated concentration,” which is the highest concentration of treatment that is not toxic to the system.
On Day 14, tissues were collected and homogenized in a buffer containing 1% SDS, 50 mM EDTA, and 10 mM Tris, pH 6.8. To each homogenate, protease K (5 mg/ml) was added and incubated overnight at 45° C. Additional protease K was added and incubated for 4 hours at 45° C., followed by the addition of 0.5M sodium carbonate and 30% H2O2 and incubation at 80° C. for 30 minutes. The samples were cooled down to room temperature, and extracted with chloroform/methanol (2:1). After centrifugation at 10,000 g for 10 minutes, absorbance of the top phase was measured at 450 nm. Percent change in melanin levels in treated tissue was calculated relative to control.
The effect of TDPA and Soybean Trypsin Inhibitor (STI) on melanin levels was investigated using the MELANODERM™ human skin model according to the methods described in Example 1.

Marks after values point to notes of the source that are not given here.

For `O=c1cc(CO)occ1O` [Kojic Acid, Kojic acid (5-hydroxy-4-pyran-4-one-2-methyl), reference compound], in the assay with B16 mouse melanoma cells (0.01% final concentration), the “% CHANGE IN MELANIN” value was −47.6%*.
With `O=C(O)CCSCCC(=O)O` [TDPA, 3,3′-thiodipropionic acid], the “% CHANGE IN MELANIN” value in assay [1] (Example 1, 1% (w/v) in water, 25 μl topical, Day 14, average of three tissues) is −10%*; in assay [1] (Example 3, 1%, methods of Example 1), −9.1%; in the assay with B16 mouse melanoma cells (0.1% final concentration), −27.4%*.
Regarding `NC(=O)c1cccnc1` [Nicotinamide, nicotinamide (3-pyridinecarboxamide), reference compound], in assay [1] (Example 1, 0.1% (w/v) in culture medium, Day 14, average of three tissues), the “% CHANGE IN MELANIN” value is −16%*.

B1: STI: Soybean Trypsin Inhibitor (STI), a known melanosome transfer inhibitor (protein, UniProt P01070 25-205, looked up)
Trypsin inhibitor A: DFVLDNEGNPLENGGTYYILSDITAFGGIRAAPTGNERCPLTVVQSRNELDKGIGTIISSPYRIRFIAEGHPLSLKFDSFAVIMLCVGIPTEWSVVEDLPEGPAVKIGENKDAMDGWFRLERVSDDEFNNYKLVFCPQQAEDDKCGDIGISIDHDDGTRRLVVSKNKPLVVQFQKLDKESL
In the case of B1, the “% CHANGE IN MELANIN” value in assay [1] (Example 3, 0.1%, methods of Example 1) is listed as −8.9%.
